From US20220322719A1, “INTESTINAL HEALTH PROMOTING COMPOSITIONS” (NSE Products, Inc., priority 2016, published 2022)

Key:
Caco-2 cell monolayers = test: TNFα-induced decrease of transepithelial electrical resistance (TEER) in Caco-2 monolayers; format: cell-based; settings: FIGS. 17-20
[1] = 500 mg isotopically labeled, single dose, male subjects (n=8); cited from earlier work

SMILES | TNFα induced losses of intestinal barrier integrity (TEER) (Caco-2 cell monolayers) | adverse effects [1] | time metabolites were present in the circulation [1]
Oc1cc(O)c2c(c1)OC(c1ccc(O)c(O)c1)C(O)C2 (stereo not drawn) [catechins, catechin] | prevents TNFα induced losses of intestinal barrier integrity |  | 
OC[C@H]1O[C@@H](Oc2cc3c(O)cc(O)cc3[o+]c2-c2ccc(O)c(O)c2)[C@H](O)[C@@H](O)[C@@H]1O [cyanidin-3-glucoside] |  | no adverse effects | less than or equal to 48 hours
